Molecules are shown by their SMILES. Several values for one entry are separate records, joined by “and”; a condition that tells them apart may be missing. Equal entries are not always repeated. Toxic doses and inconclusive results are not listed.

The subject of this experiment is P388 leukemia ip, CD2F1 mice, survival T/C. As to the kind of experiment: NCI In Vivo Anticancer Drug Screen. Data for tumor model P388 Leukemia (intraperitoneal) in CD2F1 (CDF1) mice. The following applies: endpoint: median survival time, higher = longer survival. Put shortly: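 Mice carrying the transplanted tumor received test compound or vehicle. Survival was recorded in each group, and the value is the treated-group measurement divided by that of the vehicle-treated control group.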

Where [1] appears, read: dose: 60.0 mg/kg/injection, schedule: Q01DX005 (ip), vehicle: saline with Tween-80.
The mark [2] stands for this setting: dose: 120.0 mg/kg/injection, schedule: Q01DX005 (ip), vehicle: saline with Tween-80.
[3] abbreviates: dose: 240.0 mg/kg/injection, schedule: Q01DX005 (ip), vehicle: saline with Tween-80.
The mark [4] stands for this setting: dose: 12.5 mg/kg/injection, schedule: Q01DX009 (ip), vehicle: Klucel (hydroxypropylcellulose) (HPC).
The mark [5] stands for this setting: dose: 25.0 mg/kg/injection, schedule: Q01DX009 (ip), vehicle: Klucel (hydroxypropylcellulose) (HPC).
Where [6] appears, read: dose: 50.0 mg/kg/injection, schedule: Q01DX009 (ip), vehicle: Klucel (hydroxypropylcellulose) (HPC).
Setting [7] is: dose: 100.0 mg/kg/injection, schedule: Q01DX009 (ip), vehicle: Klucel (hydroxypropylcellulose) (HPC).
Setting [8] is: dose: 50.0 mg/kg/injection, schedule: Q04DX003 (ip), vehicle: saline with Tween-80.
The mark [9] stands for this setting: dose: 100.0 mg/kg/injection, schedule: Q04DX003 (ip), vehicle: saline with Tween-80.
[10] abbreviates: dose: 200.0 mg/kg/injection, schedule: Q04DX003 (ip), vehicle: saline with Tween-80.
Setting [11] is: dose: 50.0 mg/kg/injection, schedule: Q01DX009 (ip), vehicle: saline with Tween-80.
Setting [12] is: dose: 100.0 mg/kg/injection, schedule: Q01DX009 (ip), vehicle: saline with Tween-80.
Where [13] appears, read: dose: 200.0 mg/kg/injection, schedule: Q01DX009 (ip), vehicle: saline with Tween-80.
[14] abbreviates: dose: 400.0 mg/kg/injection, schedule: Q04DX003 (ip), vehicle: saline with Tween-80.
The mark [15] stands for this setting: dose: 25.0 mg/kg/injection, schedule: Q01DX009 (ip), vehicle: saline with Tween-80.
The mark [16] stands for this setting: dose: 50.0 mg/kg/injection, schedule: Q01DX005 (ip), vehicle: saline with Tween-80.
Setting [17] is: dose: 100.0 mg/kg/injection, schedule: Q01DX005 (ip), vehicle: saline with Tween-80.
The mark [18] stands for this setting: dose: 200.0 mg/kg/injection, schedule: Q01DX005 (ip), vehicle: saline with Tween-80.
Setting [19] is: dose: 50.0 mg/kg/injection, schedule: Q01DX005 (ip), vehicle: Klucel (hydroxypropylcellulose) (HPC).
The mark [20] stands for this setting: dose: 100.0 mg/kg/injection, schedule: Q01DX005 (ip), vehicle: Klucel (hydroxypropylcellulose) (HPC).

Take `CNC(=O)Nc1cccc(C2(C)OCCS2)c1` (stereo not drawn): the T/C was 100 % of control under setting [1], 94 % of control under setting [2] and 99 % of control under setting [3].

With `CC#CC#CC#C/C=C\CCC(=O)CC`, the T/C is 95 % of control under setting [4], 95 % of control under setting [5], 95 % of control under setting [6] and 100 % of control under setting [7].

Take `O=C1NC(=O)C2(CCC(O)C2)c2ccncc21` (stereo not drawn): the T/C was 103 % of control (dose: 0.12 mg/kg/injection, schedule: Q01DX009 (ip), vehicle: saline + Tween-80 + alcohol); 100 % of control (dose: 0.25 mg/kg/injection, schedule: Q01DX009 (ip), vehicle: saline + Tween-80 + alcohol); 103 % of control (dose: 0.5 mg/kg/injection, schedule: Q01DX009 (ip), vehicle: saline + Tween-80 + alcohol); 100 % of control and 120 % of control (dose: 1.0 mg/kg/injection, schedule: Q01DX009 (ip), vehicle: saline + Tween-80 + alcohol); 117 % of control (dose: 1.4 mg/kg/injection, schedule: Q01DX009 (ip), vehicle: saline + Tween-80 + alcohol).

Consider `COC(=O)C1([Se]c2ccccc2)CCN2CCC(OCc3ccccc3[N+](=O)[O-])C21` (stereo not drawn), for which the T/C (dose: 25.0 mg/kg/injection, schedule: Q01DX001 (ip), vehicle: saline with Tween-80) is 90 % of control; the T/C (dose: 50.0 mg/kg/injection, schedule: Q01DX001 (ip), vehicle: saline with Tween-80) is 105 % of control; the T/C (dose: 100.0 mg/kg/injection, schedule: Q01DX001 (ip), vehicle: saline with Tween-80) was 108 % of control and 89 % of control.

Take `O=C(O)CCc1ccc(O)c(O)c1`: the T/C by setting is: (dose: 50.0 mg/kg/injection, schedule: Q01DX009 (ip), vehicle: saline) 102 % of control and 111 % of control; (dose: 100.0 mg/kg/injection, schedule: Q01DX009 (ip), vehicle: saline) 100 % of control and 111 % of control; (dose: 200.0 mg/kg/injection, schedule: Q01DX009 (ip), vehicle: saline) 108 % of control and 110 % of control; (dose: 400.0 mg/kg/injection, schedule: Q01DX009 (ip), vehicle: saline) 111 % of control and 115 % of control.

For `CC1(c2ccccc2)Nc2ccccc2C1=Nc1ccccc1` (stereo not drawn), the T/C is 99 % of control under setting [8], 96 % of control under setting [9] and 100 % of control under setting [10].

In the case of `O=[N+]([O-])c1cc(Cl)ccc1Cl`, the T/C runs as follows: under setting [11], 100 % of control; under setting [12], 100 % of control; under setting [13], 91 % of control.

On to `CC(=O)CC(=O)OCc1ccccc1`, for which the T/C under setting [9] is 100 % of control, the T/C under setting [10] is 100 % of control and the T/C under setting [14] is 100 % of control.

As for `CN=C(NC)c1ccc(NC(=O)c2ccc(C(=O)Nc3ccc(C(=NC)NC)cc3)c([N+](=O)[O-])c2)cc1`, the T/C is, setting by setting: (dose: 1.56 mg/kg/injection, schedule: Q01DX005 (ip), vehicle: Klucel (hydroxypropylcellulose) (HPC)) 106 % of control; (dose: 3.12 mg/kg/injection, schedule: Q01DX005 (ip), vehicle: Klucel (hydroxypropylcellulose) (HPC)) 118 % of control.

As for `CCn1c(=S)[nH]c2sc3c(c2c1=O)CCCCC3`, the T/C runs as follows: under setting [2], 89 % of control; under setting [3], 101 % of control.

For the molecule `CC(=O)OC1C=CCC2C(=O)C34CC=CC(OC(C)=O)C3(C(=O)c3ccccc3C4=O)C(=O)C12` (stereo not drawn), the T/C (dose: 6.25 mg/kg/injection, schedule: Q01DX009 (ip), vehicle: saline with Tween-80) was 103 % of control; the T/C (dose: 12.5 mg/kg/injection, schedule: Q01DX009 (ip), vehicle: saline with Tween-80) is 101 % of control; the T/C under setting [15] is 120 % of control; the T/C under setting [11] is 116 % of control; the T/C under setting [12] was 116 % of control.

For `CCCCCCCCCCCCCC(=O)OC1C(C)C2(O)C(C=C(CO)CC3(O)C(O)C(C)=CC32)C2C(C)(C)C12OC(C)=O` (stereo not drawn), the T/C is 106 % of control (dose: 0.12 mg/kg/injection, schedule: Q01DX009 (ip), vehicle: saline); 101 % of control (dose: 0.25 mg/kg/injection, schedule: Q01DX009 (ip), vehicle: saline); 111 % of control (dose: 0.5 mg/kg/injection, schedule: Q01DX009 (ip), vehicle: saline); 99 % of control (dose: 1.0 mg/kg/injection, schedule: Q01DX009 (ip), vehicle: saline); 101 % of control (dose: 2.0 mg/kg/injection, schedule: Q01DX009 (ip), vehicle: saline).

Regarding `O=C1OC2=C(CCCc3ccccc32)C(N(c2ccccc2)c2ccccc2)C1(Cl)Cl` (stereo not drawn), the T/C by setting is: under setting [6], 96 % of control; under setting [7], 88 % of control; (dose: 200.0 mg/kg/injection, schedule: Q01DX009 (ip), vehicle: Klucel (hydroxypropylcellulose) (HPC)) 89 % of control.

For `CCOc1ccc(N=C([Se])CC)cc1`, the T/C (dose: 6.25 mg/kg/injection, schedule: Q01DX009 (ip), vehicle: Klucel (hydroxypropylcellulose) (HPC)) is 109 % of control; the T/C under setting [4] is 102 % of control; the T/C under setting [5] was 92 % of control.

Consider `CCOC(=O)Nc1nccs1`, for which the T/C under setting [15] was 108 % of control, the T/C under setting [11] is 103 % of control, the T/C under setting [12] is 102 % of control and the T/C under setting [13] is 108 % of control.

Consider `O=C(N/C(=C/c1ccccc1)C(=O)N1CCN(C(=O)/C(=C\c2ccccc2)NC(=O)c2ccccc2)CC1)c1ccccc1`, for which the T/C reads like this: under setting [16], 93 % of control; under setting [17], 92 % of control; under setting [18], 93 % of control.

With `COc1cc(-c2ccc(Nc3ccccc3C(=O)O)c(OC)c2)ccc1N`, the T/C was 110 % of control under setting [8]; 150 % of control under setting [9]; 104 % of control (dose: 132.0 mg/kg/injection, schedule: Q04DX003 (ip), vehicle: saline with Tween-80).

Turning to `c1ccc(P2(c3ccccc3)=NSN=S=N2)cc1`, the T/C was 107 % of control under setting [16], 116 % of control under setting [17] and 108 % of control under setting [18].

On to `Cc1ccc(O)c(O)c1`, for which, for the setting “dose: 25.0 mg/kg/injection, schedule: Q01DX009 (ip), vehicle: saline”, the T/C is 101 % of control.

In the case of `CCOc1ccc(Br)cc1/C=N\N=C\c1cc(Br)ccc1OCC`, the T/C runs as follows: under setting [12], 90 % of control; under setting [9], 95 % of control; under setting [13], 100 % of control; under setting [10], 95 % of control; (dose: 400.0 mg/kg/injection, schedule: Q01DX009 (ip), vehicle: saline with Tween-80) 100 % of control; under setting [14], 100 % of control.

With `CN(C)C1CC/C=C/CC/C=C/CC[C@H]1O` (mixture of isomers), the T/C is 100 % of control (dose: 12.5 mg/kg/injection, schedule: Q01DX005 (ip), vehicle: saline with Tween-80); 98 % of control (dose: 25.0 mg/kg/injection, schedule: Q01DX005 (ip), vehicle: saline with Tween-80); 99 % of control and 100 % of control under setting [16].

Regarding `O=C(CCN1CCC23c4c5ccc(O)c4OC2C(O)C=CC3C1C5)c1ccccc1` (stereo not drawn), the T/C was 88 % of control under setting [19] and 99 % of control under setting [20].

For `CC1C[N+]2(CNC(=O)C3=C(O)C4(O)C(=O)C5=C(O)c6c(O)cccc6C(C)(O)C5CC4C(N(C)C)C3=O)CC(C)O[B-]2(c2ccccc2)O1` (stereo not drawn), the T/C under setting [19] is 110 % of control; the T/C under setting [20] is 110 % of control; the T/C (dose: 200.0 mg/kg/injection, schedule: Q01DX005 (ip), vehicle: Klucel (hydroxypropylcellulose) (HPC)) is 100 % of control.

In the case of `CCOC(=O)C1=C(C(=O)c2ccc(OC)cc2)C(c2ccc(OC)c(OC)c2)C(C(=O)c2ccc(OC)cc2)=C(C(=O)OCC)N1`, the T/C runs as follows: under setting [1], 90 % of control; under setting [2], 91 % of control.

For the molecule `O=[N+]([O-])c1ccc(CS(=O)(=O)c2cccs2)o1`, the T/C (dose: 50.0 mg/kg/injection, schedule: Q01DX009 (ip), vehicle: suspension in saline) is 106 % of control and the T/C (dose: 100.0 mg/kg/injection, schedule: Q01DX009 (ip), vehicle: suspension in saline) is 100 % of control.

In the case of `CC(=O)c1c(OCC(O)CN(CCO)CCO)ccc2c(C)cc(=O)oc12` (stereo not drawn), the T/C was 107 % of control under setting [16], 104 % of control under setting [17] and 108 % of control under setting [18].

(Values after PubChem BioAssay AID330 (DTP/NCI, 2004).)
